{
  "source": "patent US20240344095A1",
  "about": "“PROCESS FOR THE PRODUCTION OF MICROBIAL CELLULOSE USING WASTE TEXTILES” (Sanko Tekstil Isletmeleri San. Ve Tic. A.S., priority 2023, published 2024)",
  "test_system": "Gluconacetobacter hansenii ATCC 53582",
  "assay": "Effect of additives in waste textile glucose medium on bacterial cellulose production",
  "assay_type": "cell-based",
  "settings": "14 days",
  "experimental": "The bacterial strain Gluconacetobacter hansenii ATCC 53582 was grown in 500 mL of waste textile glucose medium at an incubation temperature of 28° C.-30° C., for 14 days, in a close-lid plastic box. Different experiments were carried out to test the effect of the addition of different additives (TiBALDH, Glycerol, Ascorbic Acid) in different concentration on the production of bacterial cellulose. At the end of the incubation, the amount of the wet bacterial cellulose obtained was determined. Comparisons of wet bacterial amount change (%) in Table 2, 3, 4, and 5 are based on data in Table 1.",
  "key": {"[1]": {"settings": "additives marked + at 0.5% Vitamin C, 1% Glycerol, 0.25% TiBALDH in WTG medium"}},
  "data": [
    {"compound": "OCC(O)CO", "note": "[Glycerol, glycerol]", "values": [
      {"measurement": "Wet BC amount change", "setting": "Glycerol Concentration 0.5 % in WTG medium, compared with Table 1", "value": 10.93, "unit": "%"},
      {"measurement": "Wet BC amount change", "setting": "Glycerol Concentration 1.0 % in WTG medium, compared with Table 1", "value": 19.74, "unit": "%"},
      {"measurement": "Wet BC amount change", "setting": "Glycerol Concentration 2.0 % in WTG medium, compared with Table 1", "value": 10.15, "unit": "%"},
      {"measurement": "Wet BC amount change", "setting": "[1]", "value": 19.74, "unit": "%"}
    ]},
    {"compound": "Titanium (IV) bis-(ammonium lactato) dihydroxide [TiBALDH]", "values": [
      {"measurement": "Wet BC amount change", "setting": "TiBALDH Concentration 0.0050 % in WTG medium, compared with Table 1", "value": 7.04, "unit": "%"},
      {"measurement": "Wet BC amount change", "setting": "TiBALDH Concentration 0.0250 % in WTG medium, compared with Table 1", "value": 18.10, "unit": "%"},
      {"measurement": "Wet BC amount change", "setting": "TiBALDH Concentration 0.0500 % in WTG medium, compared with Table 1", "value": 24.13, "unit": "%"},
      {"measurement": "Wet BC amount change", "setting": "TiBALDH Concentration 0.2500 % in WTG medium, compared with Table 1", "value": 55.30, "unit": "%"},
      {"measurement": "Wet BC amount change", "setting": "TiBALDH Concentration 0.5000 % in WTG medium, compared with Table 1", "value": 17.10, "unit": "%"},
      {"measurement": "Wet BC amount change", "setting": "TiBALDH Concentration 1.0000 % in WTG medium, compared with Table 1", "value": "−26.79", "unit": "%"},
      {"measurement": "Wet BC amount change", "setting": "[1]", "value": 55.30, "unit": "%"}
    ]},
    {"compound": "O=C1O[C@H]([C@@H](O)CO)C(O)=C1O", "note": "[Vitamin C, ascorbic acid]", "values": [
      {"measurement": "Wet BC amount change", "setting": "Vitamin C Concentration 0.25 % in WTG medium, compared with Table 1", "value": 6.75, "unit": "%"},
      {"measurement": "Wet BC amount change", "setting": "Vitamin C Concentration 0.50 % in WTG medium, compared with Table 1", "value": 9.25, "unit": "%"},
      {"measurement": "Wet BC amount change", "setting": "Vitamin C Concentration 1.00 % in WTG medium, compared with Table 1", "value": 8.13, "unit": "%"},
      {"measurement": "Wet BC amount change", "setting": "Vitamin C Concentration 2.00 % in WTG medium, compared with Table 1", "value": 6.95, "unit": "%"},
      {"measurement": "Wet BC amount change", "setting": "Vitamin C Concentration 3.00 % in WTG medium, compared with Table 1", "value": 5.57, "unit": "%"},
      {"measurement": "Wet BC amount change", "setting": "Vitamin C Concentration 4.00 % in WTG medium, compared with Table 1", "value": 2.96, "unit": "%"},
      {"measurement": "Wet BC amount change", "setting": "[1]", "value": 9.25, "unit": "%"}
    ]}
  ]
}
